The text below walks through data of the NIST ThermoML archive (doi:10.1016/j.tca.2018.03.018).

± gives the expanded uncertainty stated by the source.

The nature of series [1]: Molar enthalpy of transition or fusion. The conditions noted are these: Crystal; DSC.
For series [2] the following is noted: Crystal; DSC.

As to `CCCCCCCCCCCCCCCCCC(=O)O` [octadecanoic acid], the “Molar enthalpy of transition or fusion” value in series [1] is 12 ± 0.335 kcal/mol. In addition, the Triple point temperature in series [2] is 325.66 ± 1 K.
